One compound from US20160299149A1, “ASSAYS AND METHODS FOR CELL PROLIFERATION-TARGETED TREATMENT THERAPIES” (University of Central Florida Research Foundation, Inc., priority 2015, published 2016) can be followed below.

Data set [1] relates to L3.6pl. Briefly: 3H Spd import Vmax, untreated cells. Format: cell-based, human. An excerpt: (§1) FIG. 10 is a table providing the Relative Protein expression of Cav-1, ATP13A3 and c-myc in human pancreatic cancer cell lines along with the respective Vmax values for ^3H spermidine (Spd) import and the relative affinity Km values determined for spermidine. Entries represent 100%×protein expression/beta actin expression as shown in FIG. 10 along with the Vmax value already provided. The Western blots were quantified by Image J software (NIH) and normalized by dividing by the beta-actin expression level for each cell line. Entries represent protein expression and are expressed in relative %, with the L3.6pl cell expression levels set to 100%.
(§2) FIG. 10 provides a table showing the relative protein expression of Cav-1, ATP13A3 and c-myc in human pancreatic cancer cell lines (normalized by dividing by the relative beta actin expression level) along with the respective Vmax values for ^3H Spd import and Km values. The entries represent 100%×protein expression/beta actin expression is shown in the table along with the Vmax and Km values reported earlier. As mentioned earlier, a strong correlation was found between ATP13A3 expression and the ability of DFMO-treated cells to be rescued by exogenous spermidine (FIG. 8, rightmost column).

The test system of data set [2] is AspC-1. Briefly: 3H Spd import Vmax, untreated cells. Format: cell-based, human.
Description: as §1, §2

Data set [3] relates to BxPC-3. Put plainly: 3H Spd import Vmax, untreated cells. In kind it is cell-based, human.
Description: as §1, §2

For data set [4], the system named is SU86.86. Briefly: 3H Spd import Vmax, untreated cells. In kind it is cell-based, human.
Description: as §1, §2

Data set [5] has as its system Capan-1. Briefly: 3H Spd import Vmax, untreated cells. In kind it is cell-based, human.
Description: as §1, §2

Data set [6] has as its system HPNE. Briefly: 3H Spd import Vmax, untreated cells. Format: cell-based, human.
Description: as §1, §2

Data set [7] relates to Panc-1. Briefly: 3H Spd import Vmax, untreated cells. In kind it is cell-based, human.
Description: as §1, §2

The nature of data set [8]: Polyamine transport inhibitor assay 2: PTI blocks uptake of rescuing spermidine into DFMO-treated cells. As to conditions: DFMO dosed at its IC50; Spd 1 μM; PTI not above its IC10; relative to untreated control; read-out: cell viability. In kind it is cell-based. As for the experimental part: FIG. 6A is a diagram showing an assay wherein the uptake of rescuing dose of spermidine into DFMO-treated cells is blocked by a PTI (GW 5074).
(§3) DFMO was dosed to give 50% relative viability versus an untreated control, i.e. DFMO is dosed at its IC50 value. Exogenous spermidine (Spd, 1 μM) is added to the DFMO treated cells and provided significant rescue of these cells to >80% viability depending upon the cell line. A successful PTI was able to block the entry of the spermidine rescuing agent into DFMO treated cells and result in a cell viability near the DFMO control (i.e. 50% viability). The inventors identified the following cell viabilities: DFMO only (50%), Spd only (100%), PTI (>90%), DFMO+Spd (>80%), DFMO+Spd+PTI (50%). The PTI provides a dose dependent lowering of cell viability in the presence of DFMO and a rescuing dose of spermidine. […] Identifying cells that respond to exogenous spermidine allow this assay to be possible and the c-myc and ATP13A3 biomarkers help predict these outcomes as well as the Vmax measurements for ^3H Spd import.

The subject of data set [9] is L3.6pl, Panc1, CHO and PanO2 cells. Put plainly: Cell line sensitivity to DFMO and spermidine rescue challenge. Format: cell-based. As to conditions: cells dosed with IC50 dose of DFMO, spermidine 1 μM, read-out: viability level after rescue by exogenous spermidine.
The test system of data set [10] is L3.6pl. Briefly: Spermidine rescue of DFMO-treated cells. As to conditions: DFMO-treated L3.6pl cells. In kind it is cell-based, human. As for the experimental part: (§4) FIG. 8 provides an illustration and a table showing different cell line sensitivity to DFMO and spermidine rescue challenge. The rescue challenge experiment doses cells with the respective IC50 dose of DFMO for that cell line and measures the viability of cells with and without added spermidine (1 μM). Cell lines without added spermidine give the expected 50% viability due to the presence of DFMO. […] These are highlighted in red. Cell lines with low polyamine transport activity are not rescued to a significant extent even though a rescuing dose of spermidine is available and give viabilities near 50%.
as §3

In data set [11] the test system is AspC-1. Put plainly: Spermidine rescue of DFMO-treated cells. In kind it is cell-based, human. As to conditions: DFMO-treated AspC-1 cells. The method, then: as §4, §3
Data set [12] relates to BxPC-3. Briefly: Spermidine rescue of DFMO-treated cells. In kind it is cell-based, human. Particulars: DFMO-treated BxPC-3 cells. As for the experimental part: as §4, §3
Data set [13] concerns SU86.86. Briefly: Spermidine rescue of DFMO-treated cells. Format: cell-based, human. As to conditions: DFMO-treated SU86.86 cells. As for the experimental part: as §4, §3
For data set [14], the system named is Capan-1. Put plainly: Spermidine rescue of DFMO-treated cells. Format: cell-based, human. As to conditions: DFMO-treated Capan-1 cells. The method, then: as §4, §3
Data set [15] deals with HPNE. Put plainly: Spermidine rescue of DFMO-treated cells. In kind it is cell-based, human. The method, then:
as §4, §3

Data set [16] has as its system Panc-1. Briefly: Spermidine rescue of DFMO-treated cells. In kind it is cell-based, human. As to conditions: DFMO-treated Panc-1 cells. The method, then:
as §4, §3

Data set [17] relates to MALME-3M cells and MALME-3 control cells. Put plainly: Spermidine competition / percent viability with compound A. Format: cell-based. As to conditions: 100 μM; MALME-3M and MALME-3. As for the experimental part:
Aminoguanidine (AG) at 1 mM was determined to be non-toxic and was incubated with cells for 24 h prior to compound addition. Control represents the untreated cells. All experiments were performed in triplicate. Spermidine (Spd, 100 μM) was non-toxic to both cell lines. […] Compound A is a valid polyamine transport probe.

As to `NCCCCNCCCN` [Spermidine, spermidine], the “Vmax of ^3H Spd untreated cells” value in the data set on L3.6pl [1] is on record as 24 nmoles Spd/mg protein/min; with AspC-1 [2] it was 2.3 nmoles Spd/mg protein/min; in the data set with BxPC-3 [3], 9.0 nmoles Spd/mg protein/min; in the data set with SU86.86 [4] it was 7.0 nmoles Spd/mg protein/min; in the data set with Capan-1 [5], 0.8 nmoles Spd/mg protein/min; in the data set with HPNE [6], 1.8 nmoles Spd/mg protein/min. The “Vmax of ^3H Spd untreated cells” value in the data set on Panc-1 [7] was determined as 13 nmoles Spd/mg protein/min. Also, the viability at 1 μM was 100% in [8] and more than 80% in data set [9]. In addition, the Spd rescue index entry in the data set with L3.6pl [10] is “high”; in the data set with AspC-1 [11], “Not rescuable”; in the data set with BxPC-3 [12] it was “low”; in the data set on SU86.86 [13], “med”; in the data set with Capan-1 [14] it was “Not rescuable”; in the data set on HPNE [15] it was “very low”. In the data set with Panc-1 [16], the Spd rescue index entry is reported as “med”. Further, the “toxicity to both cell lines” value in data set [17] is recorded as “non-toxic”.

Usually viability stands for a read-out of living cells in per cent, often relative to untreated cells.
